We go through 26 compounds from US20240400591A1 (Jacobio Pharmaceuticals Co., Ltd., priority 2021, published 2024).

The target of the test is T1, His-p53 Y220C (94-294) protein (Homo sapiens, UniProt P04637, Y220C).
T1 construct: His-p53 Y220C (94-294) protein
As to the kind of experiment: In vitro DNA binding assay (HTRF). The settings on record: % activation normalized to 2 μM Ref-1a high control. It is filed as biochemical. (In general: TR-FRET usually uses a lanthanide donor and a delayed reading to cut background.)

In general, EC50 refers to the midpoint of the concentration-response curve. A low value points to an effect from little substance. On to `COc1cc(P(C)(C)=O)ccc1NCC#Cc1sc2c(N[C@@H]3CCN(C4CCS(=O)(=O)CC4)C[C@@H]3F)cccc2c1CC(F)(F)F` (relative stereo) [Example 93, (Z)—N-[2-[3-(4-dimethylphosphoryl-2-methoxy-anilino)prop-1-ynyl]-3-(2,2,2-trifluoroethyl)benzothiophen-7-yl]-1-(1,1-dioxothian-4-yl)-3-fluoro-piperidin-4-amine], for which the EC50 was determined as 0.151 µM. The value for `CCc1c(C#CCNc2ccc(S(N)(=O)=O)cc2)sc2c(NC3CCN(C)CC3)cccc12` [Example 1, 4-((3-(3-ethyl-7-((1-methylpiperidin-4-yl)amino)benzo[b]thiophen-2-yl)prop-2-yn-1-yl)amino)benzenesulfonamide] was 0.345 µM; that for `COc1cc(S(C)(=O)=O)ccc1NCC#Cc1sc2c(NC3CCN(C)CC3F)cccc2c1CC(F)(F)F` (centres unmarked) [Example 2, (Z)-3-fluoro-N-(2-(3-((2-methoxy-4-(methylsulfonyl)phenyl)amino)prop-1-yn-1-yl)-3-(2,2,2-trifluoroethyl)benzo[b]thiophen-7-yl)-1-methylpiperidin-4-amine] was 0.044 µM; that for `COc1cc(S(C)(=O)=O)ccc1NCC#Cc1sc2c(NC3CCN(C)CC3)cccc2c1CC(F)(F)F` [Example 3, N-(2-(3-((2-methoxy-4-(methylsulfonyl)phenyl)amino)prop-1-yn-1-yl)-3-(2,2,2-trifluoroethyl)benzo[b]thiophen-7-yl)-1-methylpiperidin-4-amine] was 0.081 µM. `CN1CCC(Nc2cccc3c(CC(F)(F)F)c(C#CCNc4ccc(S(N)(=O)=O)cc4)sc23)CC1` [Example 4, 4-((3-(7-((1-methylpiperidin-4-yl)amino)-3-(2,2,2-trifluoroethyl)benzo[b]thiophen-2-yl)prop-2-yn-1-yl)amino) benzenesulfonamide] registered an EC50 of 0.099 µM. Then `COc1cc(S(C)(=O)=O)c(F)cc1NCC#Cc1sc2c(NC3CCN(C)CC3)cccc2c1CC(F)(F)F` [Example 7, N-(2-(3-((5-fluoro-2-methoxy-4-(methylsulfonyl)phenyl)amino)prop-1-yn-1-yl)-3-(2,2,2-trifluoroethyl)benzo[b]thiophen-7-yl)-1-methylpiperidin-4-amine], with 0.2 µM; and `CNC(=O)c1ccc(NCC#Cc2sc3c(NC4CCN(C)CC4)cccc3c2CC(F)(F)F)c(OC)c1` [Example 8, 3-methoxy-N-methyl-4-((3-(7-((1-methylpiperidin-4-yl)amino)-3-(2,2,2-trifluoroethyl)benzo[b]thiophen-2-yl)prop-2-yn-1-yl)amino)benzamide], with 0.112 µM; and `CN1CCC(Nc2cccc3c(CC(F)(F)F)c(C#CCNc4ccc(P(C)(C)=O)cc4)sc23)CC1` [Example 9, dimethyl(4-((3-(7-((1-methylpiperidin-4-yl)amino)-3-(2,2,2-trifluoroethyl)benzo[b]thiophen-2-yl)prop-2-yn-1-yl)amino)phenyl)phosphine oxide], with 0.114 µM. Then `CN1CCC(Nc2cccc3c(CC(F)(F)F)c(C#CCNc4ccc(S(C)(=O)=O)cc4OCF)sc23)CC1` [Example 11, N-(2-(3-((2-(fluoromethoxy)-4-(methylsulfonyl)phenyl)amino)prop-1-yn-1-yl)-3-(2,2,2-trifluoroethyl)benzo[b]thiophen-7-yl)-1-methylpiperidin-4-amine], with 0.114 µM; and `CN1CCC(Nc2cccc3c(CC(F)(F)F)c(C#CCNc4ccc(S(C)(=O)=O)cc4OCC(F)F)sc23)CC1` [Example 12, N-(2-(3-((2-(2,2-difluoroethoxy)-4-(methylsulfonyl)phenyl)amino)prop-1-yn-1-yl)-3-(2,2,2-trifluoroethyl)benzo[b]thiophen-7-yl)-1-methylpiperidin-4-amine], with 0.141 µM; and `CN1CCC(Nc2cccc3c(CC(F)(F)F)c(C#CCNc4ccc(S(C)(=O)=O)cc4OCC(F)(F)F)sc23)CC1` [Example 13, 1-methyl-N-(2-(3-((4-(methylsulfonyl)-2-(2,2,2-trifluoroethoxy)phenyl)amino)prop-1-yn-1-yl)-3-(2,2,2-trifluoroethyl)benzo[b]thiophen-7-yl)piperidin-4-amine], with 0.17 µM. `COCCOc1cc(S(C)(=O)=O)ccc1NCC#Cc1sc2c(NC3CCN(C)CC3)cccc2c1CC(F)(F)F` [Example 14, N-[2-[3-[2-(2-methoxyethoxy)-4-methylsulfonyl-anilino]prop-1-ynyl]-3-(2,2,2-trifluoroethyl)benzothiophen-7-yl]-1-methyl-piperidin-4-amine] gave an EC50 of 0.199 µM. As for `COc1cc(S(C)(=O)=O)ccc1NCC#Cc1sc2c(NC3CCC(N(C)C)CC3)cccc2c1CC(F)(F)F` (centres unmarked) [Example 16, N1-(2-(3-((2-methoxy-4-(methylsulfonyl)phenyl)amino)prop-1-yn-1-yl)-3-(2,2,2-trifluoroethyl)benzo[b]thiophen-7-yl)-N4,N4-dimethylcyclohexane-1,4-diamine], a half-maximal response (EC50) required 0.124 µM. The value for `COc1cc(S(C)(=O)=O)ccc1NCC#Cc1sc2c(N[C@H]3CC[C@H](N4CC5(COC5)C4)CC3)cccc2c1CC(F)(F)F` [Example 17, trans-N-(4-(2-oxa-6-azaspiro[3.3]heptan-6-yl)cyclohexyl)-2-(3-((2-methoxy-4-(methylsulfonyl)phenyl)amino)prop-1-yn-1-yl)-3-(2,2,2-trifluoroethyl)benzo[b]thiophen-7-amine] was 0.072 µM; that for `COc1cc(S(C)(=O)=O)ccc1NCC#Cc1sc2c(N[C@H]3CC[C@H](N4CC5(CCOCC5)C4)CC3)cccc2c1CC(F)(F)F` [Example 18, Trans-N-(4-(7-oxa-2-azaspiro[3.5]nonan-2-yl)cyclohexyl)-2-(3-((2-methoxy-4-(methylsulfonyl)phenyl)amino)prop-1-yn-1-yl)-3-(2,2,2-trifluoroethyl)benzo[b]thiophen-7-amine] was 0.173 µM; that for `COCCCN1CCC(Nc2cccc3c(CC(F)(F)F)c(C#CCNc4ccc(S(C)(=O)=O)cc4OC)sc23)CC1` [Example 20, N-[2-[3-(2-methoxy-4-methylsulfonyl-anilino)prop-1-ynyl]-3-(2,2,2-trifluoroethyl)benzothiophen-7-yl]-1-(3-methoxypropyl)piperidin-4-amine] was 0.188 µM. Then `COc1cc(S(=O)(=O)N(C)C)ccc1NCC#Cc1sc2c(NC3CCN(C)CC3)cccc2c1CC(F)(F)F` [Example 21, 3-methoxy-N,N-dimethyl-4-((3-(7-((1-methylpiperidin-4-yl)amino)-3-(2,2,2-trifluoroethyl)benzo[b]thiophen-2-yl)prop-2-yn-1-yl)amino)benzenesulfonamide], with 0.341 µM. Then `COc1cc(S(=O)(=O)N2CCOCC2)ccc1NCC#Cc1sc2c(NC3CCN(C)CC3)cccc2c1CC(F)(F)F` [Example 22, N-(2-(3-((2-methoxy-4-(morpholinosulfonyl)phenyl)amino)prop-1-yn-1-yl)-3-(2,2,2-trifluoroethyl)benzo[b]thiophen-7-yl)-1-methylpiperidin-4-amine], with 0.288 µM. As for `COc1cc(S(N)(=O)=O)ccc1NCC#Cc1sc2c(NC3CCN(C)CC3)cccc2c1CC(F)(F)F` [Example 23, 3-methoxy-4-((3-(7-((1-methylpiperidin-4-yl)amino)-3-(2,2,2-trifluoroethyl)benzo[b]thiophen-2-yl)prop-2-yn-1-yl)amino)benzenesulfonamide], the response was half-maximal at 0.1 µM (EC50). Then `COc1cc(S(=O)(=O)NCC(O)CO)ccc1NCC#Cc1sc2c(NC3CCN(C)CC3)cccc2c1CC(F)(F)F` (centres unmarked) [Example 24, N-(2,3-dihydroxypropyl)-3-methoxy-4-((3-(7-((1-methylpiperidin-4-yl)amino)-3-(2,2,2-trifluoroethyl)benzo[b]thiophen-2-yl)prop-2-yn-1-yl)amino)benzenesulfonamide], with 0.056 µM. The value for `COc1cc(S(C)(=O)=O)ccc1NCC#Cc1sc2c(NC3C4CCC3CN(C)C4)cccc2c1CC(F)(F)F` (centres unmarked) [Example 25, N-(2-(3-((2-methoxy-4-(methylsulfonyl)phenyl)amino)prop-1-yn-1-yl)-3-(2,2,2-trifluoroethyl)benzo[b]thiophen-7-yl)-3-methyl-3-azabicyclo[3.2.1]octan-8-amine] was 0.312 µM. The value for `COc1cc(S(C)(=O)=O)ccc1NCC#Cc1sc2c(NC3CC4CCC(C3)N4C)cccc2c1CC(F)(F)F` (centres unmarked) [Example 26, N-(2-(3-((2-methoxy-4-(methylsulfonyl)phenyl)amino)prop-1-yn-1-yl)-3-(2,2,2-trifluoroethyl)benzo[b]thiophen-7-yl)-8-methyl-8-azabicyclo[3.2.1]octan-3-amine] was 0.169 µM; that for `COc1cc(S(C)(=O)=O)ccc1NCC#Cc1sc2c(NC3CC4CC3CN4C)cccc2c1CC(F)(F)F` (centres unmarked) [Example 27, N-(2-(3-((2-methoxy-4-(methylsulfonyl)phenyl)amino)prop-1-yn-1-yl)-3-(2,2,2-trifluoroethyl)benzo[b]thiophen-7-yl)-2-methyl-2-azabicyclo[2.2.1]heptan-5-amine] was 0.235 µM. In the case of `COc1cc(S(C)(=O)=O)ccc1NCC#Cc1sc2c(NC3CC4CC3CN4)cccc2c1CC(F)(F)F` (centres unmarked) [Example 28, N-(2-(3-((2-methoxy-4-(methylsulfonyl)phenyl)amino)prop-1-yn-1-yl)-3-(2,2,2-trifluoroethyl)benzo[b]thiophen-7-yl)-2-azabicyclo[2.2.1]heptan-5-amine], a half-maximal response (EC50) required 0.284 µM.

Turning to `CN1CCC(Nc2cccc3c(CC(F)(F)F)c(C#CCNc4cccc5cc[nH]c45)sc23)CC1` [Example 29, N-(3-(7-((1-methylpiperidin-4-yl)amino)-3-(2,2,2-trifluoroethyl)benzo[b]thiophen-2-yl)prop-2-yn-1-yl)-1H-indol-7-amine], the EC50 was determined as 6.4 µM. Then `CN1CCC(Nc2cccc3c(CC(F)(F)F)c(C#CCNc4cccc5c(C6CCNCC6)c[nH]c45)sc23)CC1` [Example 30, N-(3-(7-((1-methylpiperidin-4-yl)amino)-3-(2,2,2-trifluoroethyl)benzo[b]thiophen-2-yl)prop-2-yn-1-yl)-3-(piperidin-4-yl)-1H-indol-7-amine], with 0.452 µM.
